Data set [1] concerns Radical scavenging activity. The data set is described as follows: Antioxidant activity assessed as inhibition of DPPH radical generation relative to alpha-tocopherol. In kind it is functional. Details: scale not given: the % may be the effect or the level left. (In general: DPPH is a stable violet radical that fades when it is reduced.)
For data set [2], the system named is Radical scavenging activity. The data set is described as follows: Antioxidant activity assessed as inhibition of DPPH radical generation. In kind it is functional.
Data set [3] can be described thus: Oral bioavailability in rat at 500 mg/kg. Format: ADME, organism-based. The conditions noted are these: in vivo.

Structures are written as SMILES.

As for `COc1cc(C2NC(c3cc(OC)c(OC)c(OC)c3)C3CC(C)CC2C3=O)cc(OC)c1OC` (stereo unspecified), the Activity in data set [1] worked out at 20%. Regarding `COc1ccc(C2NC(c3ccc(OC)c(OC)c3)C3CC(C)CC2C3=O)cc1OC` (stereo unspecified), in data set [1], the Activity stood at 20%.

Regarding `COc1ccc(OC)c(C2NC(c3cc(OC)ccc3OC)C3CC(C)CC2C3=O)c1` (stereo unspecified), the Activity in data set [1] was determined as 20%.

In the case of `Cc1c(C)c2c(c(C)c1O)CC[C@@](C)(CCC[C@H](C)CCC[C@H](C)CCCC(C)C)O2` [ALPHA-TOCOPHEROL], the IC50 – broadly, the point on the concentration scale where inhibition reaches its midpoint – in data set [2] amounted to 59 µM. Regarding `COc1cc(/C=C/C(=O)CC(=O)/C=C/c2ccc(O)c(OC)c2)ccc1O` [CURCUMIN], the IC50 in data set [2] is 35.1 µM. The bioavailability (commonly dose-corrected exposure relative to a reference, in per cent) in data set [3] was found to be 1%.

The values are drawn from ChEMBL document CHEMBL2069271, “Design, synthesis, stereochemistry and antioxidant properties of various 7-alkylated 2,4-diaryl-3-azabicyclo[3.3.1]nonan-9-ones” (Bioorg Med Chem Lett, 2012).
